Values quoted from earlier work, collected in patent US12138351B2, “Pharmaceutical composition for oral administration comprising aminopyrimidine derivative or pharmaceutically acceptable salt, hydrate, or solvate thereof” (Janssen Biotech, Inc., priority 2020, dated 2024).
Where two headings read alike, the source gives them in different places.

Legend:
[1] = compared to the compound in the form of free-base
[2] = system: T790M single active mutation (EGFRm) and double mutation; conditions: known irreversible EGFR TKI
wild-type EGFR = wild-type EGFR (Homo sapiens, UniProt P00533); conditions: known irreversible EGFR TKI
Chain of wild-type EGFR (P00533 25-1210): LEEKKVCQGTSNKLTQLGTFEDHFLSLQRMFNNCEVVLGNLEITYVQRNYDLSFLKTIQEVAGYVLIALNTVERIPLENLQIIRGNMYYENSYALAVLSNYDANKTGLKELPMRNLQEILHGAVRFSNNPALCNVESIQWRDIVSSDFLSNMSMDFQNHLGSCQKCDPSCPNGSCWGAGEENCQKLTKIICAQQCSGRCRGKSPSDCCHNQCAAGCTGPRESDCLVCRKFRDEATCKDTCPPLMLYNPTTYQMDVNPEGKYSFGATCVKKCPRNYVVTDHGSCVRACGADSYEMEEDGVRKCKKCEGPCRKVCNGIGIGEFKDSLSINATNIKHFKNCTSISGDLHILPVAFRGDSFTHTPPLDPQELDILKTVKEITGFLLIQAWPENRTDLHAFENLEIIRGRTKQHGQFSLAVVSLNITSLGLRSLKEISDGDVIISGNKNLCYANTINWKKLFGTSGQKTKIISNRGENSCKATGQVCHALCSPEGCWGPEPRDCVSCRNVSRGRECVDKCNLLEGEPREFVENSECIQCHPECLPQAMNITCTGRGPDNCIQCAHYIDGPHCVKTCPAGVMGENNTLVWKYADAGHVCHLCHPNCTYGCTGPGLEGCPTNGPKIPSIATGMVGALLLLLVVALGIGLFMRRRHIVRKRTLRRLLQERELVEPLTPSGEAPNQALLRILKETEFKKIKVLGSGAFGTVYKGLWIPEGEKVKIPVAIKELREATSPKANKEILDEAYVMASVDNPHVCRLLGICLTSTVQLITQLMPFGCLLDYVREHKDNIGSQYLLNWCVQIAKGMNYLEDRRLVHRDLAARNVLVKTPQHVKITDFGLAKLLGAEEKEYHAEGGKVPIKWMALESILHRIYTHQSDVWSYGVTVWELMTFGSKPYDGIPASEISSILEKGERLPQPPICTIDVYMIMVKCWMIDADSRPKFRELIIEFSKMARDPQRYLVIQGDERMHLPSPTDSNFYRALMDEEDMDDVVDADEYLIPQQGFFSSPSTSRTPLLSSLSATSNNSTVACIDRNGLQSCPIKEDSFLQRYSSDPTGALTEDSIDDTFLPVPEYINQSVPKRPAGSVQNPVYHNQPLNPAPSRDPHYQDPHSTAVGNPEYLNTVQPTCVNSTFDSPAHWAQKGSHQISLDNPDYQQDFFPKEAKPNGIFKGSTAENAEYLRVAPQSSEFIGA

Question: For “N-(5-(4-(4-((dimethylamino)methyl)-3-phenyl-1H-pyrazol-1-yl)pirimidine-2-ylamino)-4-methoxy-2-morpholinophenyl)acrylamide mesylate [Lazertinib mesylate]”, which stability [1] is on record?
Answer: excellent

Question: What about the bioavailability (co-administration with, e.g., an antacid, as well as administration alone) of the same molecule?
Answer: excellent bioavailability

Question: What about the bioavailability (compared to the compound in the form of free-base) of the same molecule?
Answer: excellent

Question: With `C=CC(=O)Nc1cc(Nc2nccc(-n3cc(CN(C)C)c(-c4ccccc4)n3)n2)c(OC)cc1N1CCOCC1` [Lazertinib, N-(5-(4-(4-((dimethylamino)methyl)-3-phenyl-1H-pyrazol-1-yl)pirimidine-2-ylamino)-4-methoxy-2-morpholinophenyl)acrylamide] as the molecule, how does the “inhibitory activity on T790M single active mutation (EGFRm) and double mutation” value [2] read?
Answer: strong inhibitory activity

Question: And the “effect on wild-type EGFR” value (wild-type EGFR)?
Answer: less effect
